Laboratory results reported in patent USRE48335E1, “Polymyxin derivatives as antimicrobial compounds” (priority 2014, dated 2020).
≈ marks a conversion by molar mass, not a printed value. Positions of bridges follow the written chain, without caps; N, C: chain ends. Non-standard residues stand in square brackets, D forms with d. Residues, ends and D or L forms follow the SMILES beside them. *: point of attachment. Tle = CC(C)(C)[C@H](N)C(=O)O; Nonanoyl = CCCCCCCCC(=O)*; Heptanoyl = CCCCCCC(=O)*; Octanoyl = CCCCCCCC(=O)*; Dab = NCC[C@H](N)C(=O)O; Abu = CC[C@H](N)C(=O)O; Dap = NC[C@H](N)C(=O)O

What was measured:
Acinetobacter baumannii = tested on: Acinetobacter baumannii
Experimental: (§1) MICs of the lipopeptides (trifluoroacetic acid salt, TFA) were determined by broth microdilution in cation-adjusted Mueller-Hinton broth (CAMHB) (Oxoid Australia, Thebarton, SA, Australia) according to Clinical and Laboratory Standards Institute standards (Clinical and Laboratory Standards Institute. Performance standards for antimicrobial susceptibility testing; eighteenth informational supplement M100-S18. Wayne, Pa., 2008). Polymyxin B (sulphate) was employed as control. […]

Enterobacter cloacae = tested on: Enterobacter cloacae
Experimental: as §1

Pseudomonas aeruginosa = tested on: Pseudomonas aeruginosa
Experimental: as §1

Row | SMILES | Minimum inhibitory concentration, Ab A ATCC 17978 (Acinetobacter baumannii) | Minimum inhibitory concentration, Ab ATCC 19606 (Acinetobacter baumannii) | Minimum inhibitory concentration, Ab FADDI-AB034 (Acinetobacter baumannii) | Minimum inhibitory concentration, Ec FADDI-EC001 (Enterobacter cloacae) | Minimum inhibitory concentration, Ec FADDI-EC003 (Enterobacter cloacae) | Minimum inhibitory concentration, Ec FADDI-EC006 (Enterobacter cloacae) | Minimum inhibitory concentration, Pa ATCC 27853 (Pseudomonas aeruginosa) | Minimum inhibitory concentration, Pa FADDI-PA022 (Pseudomonas aeruginosa) | Minimum inhibitory concentration, Pa FADDI-PA025 (Pseudomonas aeruginosa)
1 | CCCCCCCC(=O)N[C@@H](CCN)C(=O)N[C@H](C(=O)N[C@@H](CN)C(=O)N[C@H]1CCNC(=O)[C@H]([C@@H](C)O)NC(=O)[C@H](CCN)NC(=O)[C@H](CCN)NC(=O)[C@H]([C@@H](C)O)NC(=O)[C@@H](CC(C)C)NC(=O)[C@H](CN)NC1=O)[C@@H](C)O [Compound 52] (Octanoyl-[Dab]T[Dap][Dab][Dap][dL]T[Dab][Dab]T; lactam 4-C) | 0.5 µg/mL (≈ 0.448 µM) | 1 µg/mL (≈ 0.897 µM) | 0.5 µg/mL (≈ 0.448 µM) | 0.25 µg/mL (≈ 0.224 µM) | 0.25 µg/mL (≈ 0.224 µM) | 0.5 µg/mL (≈ 0.448 µM) | 0.5 µg/mL (≈ 0.448 µM) | 1 µg/mL (≈ 0.897 µM) | >32 µg/mL
2 | CCCCCCCCC(=O)N[C@@H](CCN)C(=O)N[C@H](C(=O)N[C@@H](CCN)C(=O)N[C@H]1CCNC(=O)[C@H]([C@@H](C)O)NC(=O)[C@H](CCN)NC(=O)[C@H](CCN)NC(=O)[C@H]([C@@H](C)O)NC(=O)[C@@H](CC(C)C)NC(=O)[C@H](CCN)NC1=O)[C@@H](C)O [Compound 43] (Nonanoyl-[Dab]T[Dab][Dab][Dab][dL]T[Dab][Dab]T; lactam 4-C) | 0.5 µg/mL (≈ 0.432 µM) | 0.5 µg/mL (≈ 0.432 µM) | 1 µg/mL (≈ 0.864 µM) | 0.25 µg/mL (≈ 0.216 µM) | <0.125 µg/mL | 0.5 µg/mL (≈ 0.432 µM) | 0.5 µg/mL (≈ 0.432 µM) | 1 µg/mL (≈ 0.864 µM) | 16 µg/mL (≈ 13.8 µM)
3 | CCCCCCCC(=O)N[C@@H](CCN)C(=O)N[C@H](C(=O)N[C@@H](CN)C(=O)N[C@H]1CCNC(=O)[C@H]([C@@H](C)O)NC(=O)[C@H](CCN)NC(=O)[C@H](CCN)NC(=O)[C@H](C(C)(C)C)NC(=O)[C@@H](CC(C)C)NC(=O)[C@H](CCN)NC1=O)[C@@H](C)O [Compound 47] (Octanoyl-[Dab]T[Dap][Dab][Dab][dL][Tle][Dab][Dab]T; lactam 4-C) | 2 µg/mL (≈ 1.75 µM) | 8 µg/mL (≈ 7.01 µM) | 1 µg/mL (≈ 0.876 µM) | 0.5 µg/mL (≈ 0.438 µM) | 0.5 µg/mL (≈ 0.438 µM) | 0.25 µg/mL (≈ 0.219 µM) | 1 µg/mL (≈ 0.876 µM) | 1 µg/mL (≈ 0.876 µM) | 8 µg/mL (≈ 7.01 µM)
4 | CCCCCCCC(=O)N[C@@H](CCN)C(=O)N[C@H](C(=O)N[C@@H](C(=O)N[C@H]1CCNC(=O)[C@H]([C@@H](C)O)NC(=O)[C@H](CCN)NC(=O)[C@H](CCN)NC(=O)[C@H]([C@@H](C)O)NC(=O)[C@@H](CC(C)C)NC(=O)[C@H](CCN)NC1=O)[C@H](C)O)[C@@H](C)O [Compound 15] (Octanoyl-[Dab]T[dT][Dab][Dab][dL]T[Dab][Dab]T; lactam 4-C) | 0.5 µg/mL (≈ 0.437 µM) | 2 µg/mL (≈ 1.75 µM) | 1 µg/mL (≈ 0.874 µM) | 1 µg/mL (≈ 0.874 µM) | 2 µg/mL (≈ 1.75 µM) | 1 µg/mL (≈ 0.874 µM) | 16 µg/mL (≈ 14 µM) | 16 µg/mL (≈ 14 µM) | >32 µg/mL
5 | CCCCCCC(=O)N[C@@H](CCN)C(=O)N[C@H](C(=O)N[C@@H](CN)C(=O)N[C@H]1CCNC(=O)[C@H]([C@@H](C)O)NC(=O)[C@H](CCN)NC(=O)[C@H](CCN)NC(=O)[C@H](CC)NC(=O)[C@@H](CC(C)C)NC(=O)[C@H](CCN)NC1=O)[C@@H](C)O [Compound 64] (Heptanoyl-[Dab]T[Dap][Dab][Dab][dL][Abu][Dab][Dab]T; lactam 4-C) | 0.5 µg/mL (≈ 0.455 µM) | 0.5 µg/mL (≈ 0.455 µM) | 1 µg/mL (≈ 0.91 µM) | 0.5 µg/mL (≈ 0.455 µM) | <0.125 µg/mL | 0.25 µg/mL (≈ 0.227 µM) | 1 µg/mL (≈ 0.91 µM) | 2 µg/mL (≈ 1.82 µM) | 8 µg/mL (≈ 7.28 µM)
